Results from ChEMBL document CHEMBL5465560, “Selectivity Literature for EUbOPEN Chemogenomic Library” (2024).

Assays:
[1] = molecular target: Ribosomal protein S6 kinase alpha-4 (Homo sapiens) (UniProt O75676); experiment: Selectivity interaction (KinomeScan (DiscoverX)) EUB0000229b RPS6KA4; details: at 10 µM
[2] = molecular target: Interferon-induced, double-stranded RNA-activated protein kinase (Homo sapiens) (UniProt P19525); experiment: Selectivity interaction (KinomeScan (DiscoverX)) EUB0000595a EIF2AK2; details: at 10 µM
Chain of Interferon-induced, double-stranded RNA-activated protein kinase (Homo sapiens) (P19525 whole entry): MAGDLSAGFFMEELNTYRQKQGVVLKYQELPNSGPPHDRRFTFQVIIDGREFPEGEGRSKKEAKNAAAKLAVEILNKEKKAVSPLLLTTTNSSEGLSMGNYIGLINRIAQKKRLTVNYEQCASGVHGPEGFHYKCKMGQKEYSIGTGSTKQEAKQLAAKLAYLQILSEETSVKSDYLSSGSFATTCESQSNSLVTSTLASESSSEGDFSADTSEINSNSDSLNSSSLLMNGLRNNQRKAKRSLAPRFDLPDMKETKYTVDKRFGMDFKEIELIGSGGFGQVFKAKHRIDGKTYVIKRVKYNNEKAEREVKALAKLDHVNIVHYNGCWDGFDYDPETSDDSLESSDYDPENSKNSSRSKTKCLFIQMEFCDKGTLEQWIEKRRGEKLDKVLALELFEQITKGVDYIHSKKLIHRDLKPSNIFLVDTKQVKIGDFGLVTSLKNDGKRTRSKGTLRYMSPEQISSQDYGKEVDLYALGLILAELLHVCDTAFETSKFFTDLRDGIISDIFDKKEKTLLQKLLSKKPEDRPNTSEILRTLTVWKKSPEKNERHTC

[3] = molecular target: Proto-oncogene tyrosine-protein kinase Src (Homo sapiens, UniProt P12931); experiment: Selectivity interaction (Kinase panel (DSF assay)) EUB0001559a SRC
Chain of Proto-oncogene tyrosine-protein kinase Src (P12931 2-536 limits assumed): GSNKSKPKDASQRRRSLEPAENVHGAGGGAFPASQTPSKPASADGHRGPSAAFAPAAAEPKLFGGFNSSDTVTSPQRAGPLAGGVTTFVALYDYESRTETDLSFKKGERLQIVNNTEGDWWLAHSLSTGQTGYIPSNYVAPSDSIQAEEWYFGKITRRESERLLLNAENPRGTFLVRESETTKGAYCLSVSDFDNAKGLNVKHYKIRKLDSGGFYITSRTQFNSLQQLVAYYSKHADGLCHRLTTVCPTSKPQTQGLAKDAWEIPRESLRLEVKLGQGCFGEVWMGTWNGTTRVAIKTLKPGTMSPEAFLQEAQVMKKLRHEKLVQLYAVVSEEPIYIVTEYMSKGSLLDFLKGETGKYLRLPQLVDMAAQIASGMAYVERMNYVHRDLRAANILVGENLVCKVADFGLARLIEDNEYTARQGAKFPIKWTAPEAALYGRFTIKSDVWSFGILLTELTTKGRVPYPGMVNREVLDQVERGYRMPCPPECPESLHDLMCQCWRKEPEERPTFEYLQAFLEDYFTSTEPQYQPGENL

[4] = molecular target: MAP kinase-activated protein kinase 2 (Homo sapiens, UniProt P49137); experiment: Selectivity interaction (KinomeScan (DiscoverX)) EUB0000666a MAPKAPK2; details: at 10 µM
Chain of MAP kinase-activated protein kinase 2 (P49137 whole entry, looked up): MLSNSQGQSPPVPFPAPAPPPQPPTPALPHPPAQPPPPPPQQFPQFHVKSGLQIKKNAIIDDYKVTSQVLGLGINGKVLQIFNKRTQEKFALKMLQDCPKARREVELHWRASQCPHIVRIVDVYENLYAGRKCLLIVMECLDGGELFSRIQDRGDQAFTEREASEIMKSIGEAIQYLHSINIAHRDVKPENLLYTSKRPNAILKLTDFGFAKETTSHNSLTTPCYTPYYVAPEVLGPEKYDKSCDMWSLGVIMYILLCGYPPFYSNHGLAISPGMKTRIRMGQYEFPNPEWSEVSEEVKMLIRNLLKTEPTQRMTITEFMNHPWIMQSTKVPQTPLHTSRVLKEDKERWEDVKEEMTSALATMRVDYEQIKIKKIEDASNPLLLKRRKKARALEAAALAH

[5] = molecular target: T1, Serine/threonine-protein kinase PLK4 (Homo sapiens) (UniProt O00444); details: at 10 µM
T1 sequence (whole entry): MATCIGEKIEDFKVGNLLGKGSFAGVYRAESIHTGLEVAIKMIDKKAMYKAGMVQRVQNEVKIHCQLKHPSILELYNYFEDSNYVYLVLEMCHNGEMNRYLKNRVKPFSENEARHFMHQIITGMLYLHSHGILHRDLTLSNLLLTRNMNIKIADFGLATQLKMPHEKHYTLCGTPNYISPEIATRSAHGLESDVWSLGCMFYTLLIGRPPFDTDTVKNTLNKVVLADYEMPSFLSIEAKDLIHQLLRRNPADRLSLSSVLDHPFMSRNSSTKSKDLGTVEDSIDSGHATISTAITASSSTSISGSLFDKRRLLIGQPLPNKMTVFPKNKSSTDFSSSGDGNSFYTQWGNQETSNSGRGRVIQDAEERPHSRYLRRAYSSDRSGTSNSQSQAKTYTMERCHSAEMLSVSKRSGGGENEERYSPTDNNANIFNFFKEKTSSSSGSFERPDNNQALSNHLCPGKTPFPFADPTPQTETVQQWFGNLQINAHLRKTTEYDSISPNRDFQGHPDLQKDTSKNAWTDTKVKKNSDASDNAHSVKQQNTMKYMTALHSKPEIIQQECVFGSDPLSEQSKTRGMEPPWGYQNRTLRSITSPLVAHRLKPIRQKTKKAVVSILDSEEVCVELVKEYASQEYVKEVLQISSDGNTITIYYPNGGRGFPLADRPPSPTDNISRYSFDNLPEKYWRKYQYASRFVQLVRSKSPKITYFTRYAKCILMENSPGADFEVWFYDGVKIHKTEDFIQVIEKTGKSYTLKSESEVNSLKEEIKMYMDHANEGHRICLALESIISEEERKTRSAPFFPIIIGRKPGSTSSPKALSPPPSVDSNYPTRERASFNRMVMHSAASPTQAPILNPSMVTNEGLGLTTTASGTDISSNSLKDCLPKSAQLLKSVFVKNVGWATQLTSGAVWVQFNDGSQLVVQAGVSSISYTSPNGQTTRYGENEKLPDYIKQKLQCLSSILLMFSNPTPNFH

[6] = molecular target: T2, Inhibitor of nuclear factor kappa-B kinase subunit beta (Homo sapiens) (UniProt O14920); experiment: Selectivity interaction (Millipore kinase profiler) EUB0000124b IKBKB; details: at 10 µM
T2 sequence (whole entry): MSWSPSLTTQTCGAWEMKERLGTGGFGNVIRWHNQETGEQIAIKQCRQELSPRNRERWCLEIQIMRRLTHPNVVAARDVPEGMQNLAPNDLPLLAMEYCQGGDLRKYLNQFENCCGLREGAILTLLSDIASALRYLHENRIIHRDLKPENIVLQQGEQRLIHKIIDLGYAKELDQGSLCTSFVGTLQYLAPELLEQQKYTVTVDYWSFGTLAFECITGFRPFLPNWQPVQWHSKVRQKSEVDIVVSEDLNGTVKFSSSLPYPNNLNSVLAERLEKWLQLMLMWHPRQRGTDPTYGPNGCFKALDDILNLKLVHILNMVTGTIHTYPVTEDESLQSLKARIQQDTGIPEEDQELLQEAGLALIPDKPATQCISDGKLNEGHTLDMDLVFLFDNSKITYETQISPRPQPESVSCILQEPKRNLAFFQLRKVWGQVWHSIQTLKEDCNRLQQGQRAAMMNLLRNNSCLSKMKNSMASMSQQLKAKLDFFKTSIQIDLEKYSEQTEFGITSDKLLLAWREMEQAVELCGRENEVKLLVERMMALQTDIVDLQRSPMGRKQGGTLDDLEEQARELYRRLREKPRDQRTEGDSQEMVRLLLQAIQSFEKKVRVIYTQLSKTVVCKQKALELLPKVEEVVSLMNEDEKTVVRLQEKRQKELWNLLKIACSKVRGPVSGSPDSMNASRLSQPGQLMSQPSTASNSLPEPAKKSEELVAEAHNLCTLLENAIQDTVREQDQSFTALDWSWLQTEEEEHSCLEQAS

[7] = molecular target: Tyrosine-protein kinase Lyn (Homo sapiens, UniProt P07948); experiment: Selectivity interaction (Upstate Kinase Profiler service (Millipore)) EUB0000056c LYN; details: at 1 µM
Chain of Tyrosine-protein kinase Lyn (P07948 2-512 limits assumed): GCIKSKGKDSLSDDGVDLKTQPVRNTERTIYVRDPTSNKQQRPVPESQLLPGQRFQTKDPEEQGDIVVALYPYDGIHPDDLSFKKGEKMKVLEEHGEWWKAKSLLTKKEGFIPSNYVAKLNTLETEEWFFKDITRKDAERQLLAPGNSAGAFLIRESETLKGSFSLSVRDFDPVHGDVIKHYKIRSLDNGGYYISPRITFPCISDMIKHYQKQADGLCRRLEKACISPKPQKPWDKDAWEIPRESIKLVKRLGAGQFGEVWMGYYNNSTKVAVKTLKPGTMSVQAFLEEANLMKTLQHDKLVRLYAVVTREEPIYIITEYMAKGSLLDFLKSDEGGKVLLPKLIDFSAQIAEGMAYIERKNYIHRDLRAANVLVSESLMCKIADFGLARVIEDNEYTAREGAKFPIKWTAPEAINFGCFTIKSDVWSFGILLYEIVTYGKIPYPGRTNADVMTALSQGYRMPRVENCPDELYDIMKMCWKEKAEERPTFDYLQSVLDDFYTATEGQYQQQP

[8] = molecular target: T3, Serine/threonine-protein kinase TNNI3K (Homo sapiens) (UniProt Q59H18); details: at 10 µM
T3 sequence (whole entry): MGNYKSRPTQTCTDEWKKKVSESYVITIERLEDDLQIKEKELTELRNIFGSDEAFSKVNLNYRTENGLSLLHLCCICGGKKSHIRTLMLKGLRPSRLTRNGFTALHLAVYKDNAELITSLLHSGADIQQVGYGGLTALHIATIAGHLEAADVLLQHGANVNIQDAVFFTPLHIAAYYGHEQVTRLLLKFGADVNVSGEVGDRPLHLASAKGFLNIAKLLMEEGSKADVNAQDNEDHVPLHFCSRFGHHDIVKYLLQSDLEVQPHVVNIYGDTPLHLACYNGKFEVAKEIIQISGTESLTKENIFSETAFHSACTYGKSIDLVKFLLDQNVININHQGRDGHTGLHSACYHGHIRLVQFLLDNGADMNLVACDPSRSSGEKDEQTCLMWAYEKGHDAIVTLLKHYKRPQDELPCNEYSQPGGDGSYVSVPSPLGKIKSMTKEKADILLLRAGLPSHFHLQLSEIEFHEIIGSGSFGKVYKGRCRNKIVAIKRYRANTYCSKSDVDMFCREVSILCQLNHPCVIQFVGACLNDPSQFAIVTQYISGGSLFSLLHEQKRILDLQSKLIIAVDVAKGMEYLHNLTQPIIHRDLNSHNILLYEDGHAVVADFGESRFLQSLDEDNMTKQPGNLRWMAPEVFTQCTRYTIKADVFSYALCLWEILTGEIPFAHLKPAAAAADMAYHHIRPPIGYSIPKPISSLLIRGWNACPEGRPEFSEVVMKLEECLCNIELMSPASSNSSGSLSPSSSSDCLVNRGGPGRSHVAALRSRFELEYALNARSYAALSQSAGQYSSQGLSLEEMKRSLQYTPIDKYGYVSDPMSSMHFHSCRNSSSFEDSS

[9] = molecular target: Wee1-like protein kinase 2 (Homo sapiens) (UniProt P0C1S8); experiment: Selectivity interaction (KinomeScan (DiscoverX)) EUB0000092b WEE2; details: at 10 µM
Chain of Wee1-like protein kinase 2 (Homo sapiens) (P0C1S8 whole entry, looked up): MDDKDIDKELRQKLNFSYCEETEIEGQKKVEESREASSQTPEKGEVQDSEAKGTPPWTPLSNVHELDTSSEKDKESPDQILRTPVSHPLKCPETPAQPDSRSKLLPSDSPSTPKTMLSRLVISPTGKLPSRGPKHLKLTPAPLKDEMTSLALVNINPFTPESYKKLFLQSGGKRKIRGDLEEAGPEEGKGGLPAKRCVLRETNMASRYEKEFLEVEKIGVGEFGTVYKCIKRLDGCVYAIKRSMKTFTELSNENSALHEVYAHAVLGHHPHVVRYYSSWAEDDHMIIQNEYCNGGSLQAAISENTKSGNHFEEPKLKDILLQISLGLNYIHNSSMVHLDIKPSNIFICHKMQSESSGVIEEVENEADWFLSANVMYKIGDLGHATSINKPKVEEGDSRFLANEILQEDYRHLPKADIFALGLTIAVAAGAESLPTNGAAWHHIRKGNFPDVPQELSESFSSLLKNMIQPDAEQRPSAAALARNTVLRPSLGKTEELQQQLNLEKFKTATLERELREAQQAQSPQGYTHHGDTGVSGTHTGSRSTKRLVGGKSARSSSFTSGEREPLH

Chain of Ribosomal protein S6 kinase alpha-4 (Homo sapiens) (O75676 whole entry, looked up): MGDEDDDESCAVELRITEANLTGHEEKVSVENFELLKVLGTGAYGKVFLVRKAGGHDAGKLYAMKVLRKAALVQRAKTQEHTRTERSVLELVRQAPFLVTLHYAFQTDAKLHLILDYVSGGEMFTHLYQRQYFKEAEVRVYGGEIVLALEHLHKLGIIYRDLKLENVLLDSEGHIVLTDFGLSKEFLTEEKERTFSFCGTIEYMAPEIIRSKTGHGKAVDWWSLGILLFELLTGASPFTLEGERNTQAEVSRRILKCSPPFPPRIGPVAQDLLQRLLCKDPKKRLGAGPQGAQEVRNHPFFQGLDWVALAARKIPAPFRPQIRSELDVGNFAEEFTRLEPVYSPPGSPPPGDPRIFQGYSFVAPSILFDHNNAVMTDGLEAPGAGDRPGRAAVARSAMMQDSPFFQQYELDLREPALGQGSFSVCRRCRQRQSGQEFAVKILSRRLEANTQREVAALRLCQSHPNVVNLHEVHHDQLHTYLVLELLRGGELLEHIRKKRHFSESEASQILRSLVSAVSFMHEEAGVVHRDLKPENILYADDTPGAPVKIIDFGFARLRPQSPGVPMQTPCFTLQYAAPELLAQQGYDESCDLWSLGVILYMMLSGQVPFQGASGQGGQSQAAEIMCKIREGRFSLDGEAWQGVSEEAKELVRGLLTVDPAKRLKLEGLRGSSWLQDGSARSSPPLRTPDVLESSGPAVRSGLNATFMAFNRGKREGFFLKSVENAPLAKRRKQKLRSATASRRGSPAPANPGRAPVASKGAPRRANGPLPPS

## COc1cc(N(C)c2ccnc3ccc(C(F)(F)F)cc23)cc(OC)c1OC
[1]
  % binding: 72%

## COCC(=O)NC/C=C/c1ccc2ncnc(Nc3ccc(Oc4ccc(C)nc4)c(C)c3)c2c1 [CP-724714]
[2]
  % of control: 99%

## CN(C(=O)c1cnn2cccnc12)c1cc2c(cc1N1CCOCC1)C(=O)N(C[C@@H](F)C(C)(C)O)C2
[3]
  dTM: -0.3 K

## O=C(NOC[C@H](O)CO)c1ccc(F)c(F)c1Nc1ccc(I)cc1F
[4]
  % of control: 84%

## Cc1cc([C@@H](C)Nc2ccccc2C(=O)O)c2nc(N3CCOCC3)cc(=O)n2c1 [AZD-6482]
[5]
  % of control: 100%

## CC(=O)Nc1cccc(-n2c(=O)n(C3CC3)c(=O)c3c(Nc4ccc(I)cc4F)n(C)c(=O)c(C)c32)c1
[6]
  % of control: 111%

## Cc1ccc(-c2ccc3c(ccc4sc5c(c43)NC[C@@H](C)NC5=O)n2)cn1
[7]
  % of inhibition: 8%

## CCN(CC)CCCCNc1ncc2cc(-c3cc(OC)cc(OC)c3)c(NC(=O)NC(C)(C)C)nc2n1
[8]
  % of control: 100%

## CCC(=O)N1CCN(c2ccc(-n3c(=O)ccc4cnc5ccc(-c6cnc7ccccc7c6)cc5c43)cc2C(F)(F)F)CC1
[9]
  % of control: 100%
